Substitutions are numbered along the chain they refer to. Entries after “also recorded” stand apart in the source; their conditions may differ.
Columns and labels:
Experiment in all cases: HPLC forward-reaction glutamine synthetase assay with serine protease inhibitors
Type in all cases: biochemical, E. coli
[1] = molecular target: T1, glutamine synthetase mutant S52A Y397V (Escherichia coli, UniProt P0A9C5, S53A/Y398V); settings: 1 mM inhibitor; for inhibition of the enzyme (in words): HPLC assays; for % Conversion: glutamine-based divided by ADP-based specific activity
T1 construct: made in house; host or cells: E. coli YMC11 (glutamine synthetase auxotroph), pBluescript II SK+
T1 sequence (P0A9C5 2-469 S53A/Y398V limits assumed): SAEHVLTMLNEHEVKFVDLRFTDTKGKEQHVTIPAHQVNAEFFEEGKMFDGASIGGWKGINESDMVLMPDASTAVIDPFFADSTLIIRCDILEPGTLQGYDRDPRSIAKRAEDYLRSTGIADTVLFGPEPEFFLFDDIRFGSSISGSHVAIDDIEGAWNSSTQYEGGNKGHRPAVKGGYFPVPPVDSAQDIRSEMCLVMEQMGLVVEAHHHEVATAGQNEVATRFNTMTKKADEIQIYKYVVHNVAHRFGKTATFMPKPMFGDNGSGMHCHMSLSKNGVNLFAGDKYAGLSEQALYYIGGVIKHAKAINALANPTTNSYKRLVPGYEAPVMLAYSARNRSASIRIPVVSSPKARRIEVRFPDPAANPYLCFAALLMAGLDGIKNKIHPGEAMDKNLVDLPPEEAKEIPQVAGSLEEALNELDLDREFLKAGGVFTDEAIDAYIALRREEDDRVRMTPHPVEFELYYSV
Description: (§1) This assay was set up to measure glutamine synthetase activity according to the forward reaction, and measures the amount of glutamine formed from […] of L-glutamate in the presence of MnCO3-ATP (the basis of one reaction) and MgATP (the basis of a second reaction). In addition, the amount of ADP formed is also measured in a separate assay, using the same reagents.
(§2) All enzyme preparations were adjusted to the same concentration of protein, and added to the assay mixture in a volume of 50 μl. The addition of the enzyme started the reaction, which was then allowed to proceed for 1 hour. The reaction was stopped by the addition of 6 μl of a 50% solution of trichloroacetic acid. Each assay was then aliquoted into 4 HPLC vials (150 μl per vial), two of which were assayed for glutamate and glutamine using a Phenomenex Luna 5 μC18 Column on an Agilent 100 HPLC instrument. The ATP/ADP assays were run on a Chromolith Performance RP-18c column also using an Agilent 100 HPLC instrument.
(§3) As it is believed that two putative catalytic triads, similar to those in the serine proteases, are involved in the reaction mechanism of glutamine synthetase, certain of the mutants were also assayed by HPLC in the presence of the serine protease inhibitors, AEBSF and PMSF, in order to assess the effect that these inhibitors had on the enzyme. The enzymes assessed were the adenylylated WT enzyme, the deadenylylated WT enzyme, and the mutant enzymes S52A, S52A Y397V, S53A, S53A Y397V, S52A S53A and S52A S53A Y397V. The enzymes were pre-incubated for 60 minutes in the presence of 1 mM PMSF or 1 mM AEBSF. A control reaction was set up for each enzyme, which contained no inhibitor. Each enzyme was then added to assays set up as described above. The assay was allowed to proceed for 60 minutes, then stopped by the addition of […] of 50% TCA, after which they were analysed by HPLC. All assays were run in triplicate.
(§4) In addition to the γ-glutamyl transferase assays, assays were also developed to measure the rate of conversion of ATP and glutamate to ADP and glutamine by HPLC. These were set up as single assays but analysed separately for glutamate and glutamine and ATP and ADP. The conversion rates for glutamate to glutamine, in both the presence of Mn^2+ and Mg^2+ by glutamine synthetase, is referred to as the […] specific activity and is presented in μmoles/min/mg protein. The conversion rates for ATP to ADP, in both the presence of Mn^2+ and Mg^2+ by glutamine synthetase, is referred to as the ADP-based specific activity and is presented in μmoles/min/mg protein. The percentage of conversion was also calculated by dividing the glutamine-based specific activity by the ADP-based specific activity, and this value is interpreted as the ability of the enzyme to complete both steps of the reaction, i.e., glutamate to glutamine and ATP to ADP, at an equivalent level of efficiency.

[2] = molecular target: T2, glutamine synthetase mutant S52A S53A Y397V (Escherichia coli, UniProt P0A9C5, S53A/S54A/Y398V); settings: 1 mM inhibitor; for inhibition of the enzyme (in words): HPLC assays; for % Reduction in ADP-based Specific Activity / % Reduction in Glutamine-based Specific Activity / % Conversion: Mn assay; for % Reduction in ADP-based Specific Activity / % Reduction in Glutamine-based Specific Activity: 60 min pre-incubation, vs no-inhibitor control; for % Reduction in Glutamine-based Specific Activity: positive = activity increased; for % Conversion: glutamine-based divided by ADP-based specific activity
T2 construct: made in house; host or cells: E. coli YMC11 (glutamine synthetase auxotroph), pBluescript II SK+
T2 sequence (P0A9C5 2-469 S53A/S54A/Y398V limits assumed): T1 sequence (P0A9C5 2-469 S53A/Y398V limits assumed) with S53A
Description: as §1, §2, §3, §4

[3] = molecular target: T3, glutamine synthetase mutant S52A S53A (Escherichia coli, UniProt P0A9C5, S53A/S54A); settings: 1 mM inhibitor; for % Reduction in ADP-based Specific Activity / % Reduction in Glutamine-based Specific Activity / % Conversion: S52A S53A; for % Reduction in ADP-based Specific Activity / % Reduction in Glutamine-based Specific Activity: 60 min pre-incubation, vs no-inhibitor control, positive = activity increased; for % Conversion: glutamine-based divided by ADP-based specific activity
T3 construct: made in house; host or cells: E. coli YMC11 (glutamine synthetase auxotroph), pBluescript II SK+
T3 sequence (P0A9C5 2-469 S53A/S54A limits assumed): T1 sequence (P0A9C5 2-469 S53A/Y398V limits assumed) with S53A, V397Y
Description: as §1, §2, §3, §4

| SMILES | inhibition of the enzyme (in words) [1] | % Conversion ([1]; Mg assay) | % Conversion ([1]; Mn assay) | inhibition of the enzyme (in words) [2] | % Reduction in ADP-based Specific Activity [2] | % Reduction in Glutamine-based Specific Activity [2] | % Conversion [2] | % Reduction in ADP-based Specific Activity ([3]; Mg assay) | % Reduction in Glutamine-based Specific Activity ([3]; Mg assay) | % Conversion ([3]; Mg assay) | % Reduction in ADP-based Specific Activity ([3]; Mn assay) | % Reduction in Glutamine-based Specific Activity ([3]; Mn assay) | % Conversion ([3]; Mn assay) | inhibition of the enzyme (in words) ([3]; S52A S53A (double serine mutant), HPLC assays) |
| --- | --- | --- | --- | --- | --- | --- | --- | --- | --- | --- | --- | --- | --- | --- |
| O=S(=O)(F)Cc1ccccc1 [PMSF] | found to inhibit | 49% | 67% | did not significantly inhibit | −4.83% | −18.20% | 62% | −23.74% | −23.24% | 82% | −13.56% | −16.92% | 85% | did not significantly inhibit; also recorded: not significantly inhibited |
| NCCc1ccc(S(=O)(=O)F)cc1 [AEBSF] | appeared to cause inhibition |  | 85% | appeared to cause inhibition | −5.20% | −1.65% | 75% | −41.91% | −17.82% | 115% | −16.20% | −7.69% | 98% |  |

Reference: US20100022584A1, “Modulation of Glutamine Synthetase Activity” (priority 2006, published 2010)
